The text below walks through data of patent US4432732A, “Method for predicting properties of a chemical compound” (priority 1982, dated 1984).

“Also recorded” adds a separate entry of the source. Where a SMILES comes first, the peptide text is derived from it. [ ]: non-standard residue; d: D form. The star is where a group is joined. ξ: configuration not given here. ξS = NC(CO)C(=O)O; OiPr = CC(C)O*

For series [1] the following is noted: cited from earlier work; for taste in words: bitter or sweet taste; for sweetness, times sweeter than sucrose: taste of sucrose is 1.
Series [2] is described as follows: acute toxicity, LD50 (intravenous dose, small animals). To be noted: in vivo, LD50 (mg/kg) divided by molecular weight, multiplied by 100. The protocol:
Conventionally, the degree of toxicity of a compound has been known only after actual dose. LD50 data for small animals (intravenous dose) contained in the Merck Index (9th edition) were thoroughly taken to use as a learning set, which amounts to more than 300 compounds. The predictability of this chart was tested with 82 other compounds.
Toxicity scale used for this study. Unit of ordinary LD50 values are mg/kg, where mg is the quantity of substance dosed for 50% lethality and kg is the weight of the test animal.
To standardize this value on the millimore base, the LD50 values is divided by the molecular weight. In FIG. 1, the quantity is further multiplied by 100 to avoid unfamiliarly small digits.

The subject of series [3] is small animals. To be noted: intravenous dose; cited from earlier work.

`N[C@@H](CC(=O)O)C(=O)N[C@@H](Cc1ccc(O)cc1)C(=O)O` [(III)] (H-Asp-Tyr-OH): the taste in words result in series [1] is “bitter taste is observed”. In the case of `COC(=O)[C@H](Cc1ccccc1)NC(=O)[C@@H](N)CCC(=O)O` [(V)], in series [1], the taste in words entry was “bitter taste is observed”. Turning to `O=S(=O)(O)NC1CCCCC1` [cyclamic acid, reference compound], the taste in words entry in series [1] is reported as “lacking bitter taste”. Usually LD50 stands for the dose at which mortality reaches 50%. `CC(=O)Nc1c(I)c(NC(C)=O)c(I)c(C(=O)O)c1I` [Compound I] came in with an LD50 in series [2] of 22900 µmol/kg. For the same compound, the “observed LD50” value in series [3] was 14700 mg/kg. For the compound `N[C@@H](CCC(=O)O)C(=O)N[C@@H](Cc1ccccc1)C(=O)O` [(VI)], the taste in words entry in series [1] is listed as “bitter taste is observed”. Take `CC(C)OC(=O)C(CO)NC(=O)[C@@H](N)CC(=O)O` (stereo partly shown) [(VII)] (H-Asp-[ξS]-OiPr): in series [1], the taste in words entry was “sweet peptides” and the “sweetness, times sweeter than sucrose” value was about 120 times. In the case of `CNC(=O)[C@H](Cc1ccc(O)cc1)NC(=O)[C@@H](N)CC(=O)O` [(IV)] (H-Asp-Tyr-NHMe), in series [1], the taste in words entry was “bitter taste is observed”.

Regarding `COC(=O)[C@H](Cc1ccccc1)NC(=O)[C@@H](N)CC(=O)O` [aspartame, reference compound] (H-Asp-Phe-OMe), in series [1], the taste in words entry was “strong sweetness; also recorded: lacking bitter taste” and the “sweetness, times sweeter than sucrose” value is “about 150 times”. Turning to `N[C@@H](CC(=O)O)C(=O)N[C@@H](Cc1ccccc1)C(=O)O` [(II)] (H-Asp-Phe-OH), in series [1], the taste in words entry is on record as “bitter taste is observed”. As for `O=C1NS(=O)(=O)c2ccccc21` [saccharine, reference compound], in series [1], the taste in words result is reported as “slight bitterness”. On to `OC[C@H]1O[C@@](CO)(O[C@H]2O[C@H](CO)[C@@H](O)[C@H](O)[C@H]2O)[C@@H](O)[C@@H]1O` [sucrose, reference compound], for which, in series [1], the taste in words result was “lacking bitter taste”. `COc1cc(C(=O)OCCCN2CCCN(CCCOC(=O)c3cc(OC)c(OC)c(OC)c3)CC2)cc(OC)c1OC` [Compound II] returned an LD50 in series [2] of 328 µmol/kg. Besides, the “observed LD50” value in series [3] is reported as 26.6 mg/kg.
